Measurements taken from patent US9211310B2, “Use of a Chinese medicine composition in preparing medicaments for treating secondary prevention of myocardial infarction” (TASLY PHARMACEUTICAL GROUP CO., LTD, priority 2010, dated 2015).

Tested on: patients after acute myocardial infarction
Assay: Life quality, Seattle Angina Questionnaire (SAQ), same clinical trial
Format: in vivo, human
Settings: PP
Excerpt: 3508 patients who were in accordance with the diagnostic standards of AMI for 28 days to 2 years and differentiated as Qi deficiency and blood stagnation syndrome by TCM were studied. 0.5 g Chinese medicine composition prepared by the method of EXAMPLE 1 (Coded as QSYQ) was administrated half an hour after meal, 3 times per day.
There were 19 questions in the Seattle angina questionnaire (SAQ), including 5 parts: physical limitation (PL), anginal stability (AS), anginal frequency (AF), treatment satisfaction (TS) and disease perception (DP). After being given necessary explanation by doctors, the questions were answered independently by patients.
They included the overall survival time, angina pectoris score, TCM symptom score and life quality score, where angina pectoris score, TCM symptom score and life quality score were evaluated at randomization, in 1st, 3rd, 6th, 9th, 12th month after treatment and 18th month after follow-up.
All evaluation results of SAQ were described during the period of observation, and Wilcoxon rank sum test was used for inter-group comparison.
The evaluation results in the SAQ were depicted in different observations, and inter-group comparison was tested by Wilcoxon Rank-sum test.

[1] = Follow-up, second line headed Not limited (r60)

Compound: CC(=O)Oc1ccccc1C(=O)O [Control group, aspirine]
- SAQ 7th question, Highly satisfied: % of patients (Baseline): (20.32%)
- SAQ 7th question, Highly satisfied: number of patients (Baseline): 304
- SAQ 7th question, Mostly dissatisfied: % of patients (Baseline): (4.88%)
- SAQ 7th question, Mostly dissatisfied: number of patients (Baseline): 73
- SAQ 7th question, Mostly satisfied: % of patients (Baseline): (46.52%)
- SAQ 7th question, Mostly satisfied: number of patients (Baseline): 696
- SAQ 7th question, Partly satisfied: % of patients (Baseline): (27.94%)
- SAQ 7th question, Partly satisfied: number of patients (Baseline): 418
- SAQ Question 1-1 Mildly limited, number of patients (Baseline): 30
- SAQ Question 1-1 Mildly limited, percent of patients (Baseline): (2.01%)
- SAQ Question 1-1 Moderately limited, number of patients (Baseline): 13
- SAQ Question 1-1 Moderately limited, percent of patients (Baseline): (0.87%)
- SAQ Question 1-1 Not limited, number of patients (Baseline): 1359
- SAQ Question 1-1 Not limited, percent of patients (Baseline): (90.96%)
- SAQ Question 1-1 Other reasons, number of patients (Baseline): 4
- SAQ Question 1-1 Other reasons, percent of patients (Baseline): (0.27%)
- SAQ Question 1-1 Severely limited, number of patients (Baseline): 1
- SAQ Question 1-1 Severely limited, percent of patients (Baseline): (0.07%)
- SAQ Question 1-1 Slightly limited, number of patients (Baseline): 87
- SAQ Question 1-1 Slightly limited, percent of patients (Baseline): (5.82%)
- SAQ Question 1-2 Mildly limited, number of patients (Baseline): 42
- SAQ Question 1-2 Mildly limited, percent of patients (Baseline): (2.81%)
- SAQ Question 1-2 Moderately limited, number of patients (Baseline): 13
- SAQ Question 1-2 Moderately limited, percent of patients (Baseline): (0.87%)
- SAQ Question 1-2 Not limited, number of patients (Baseline): 1319
- SAQ Question 1-2 Not limited, percent of patients (Baseline): (88.29%)
- SAQ Question 1-2 Other reasons, number of patients (Baseline): 5
- SAQ Question 1-2 Other reasons, percent of patients (Baseline): (0.33%)
- SAQ Question 1-2 Severely limited, number of patients (Baseline): 2
- SAQ Question 1-2 Severely limited, percent of patients (Baseline): (0.13%)
- SAQ Question 1-2 Slightly limited, percent of patients (Baseline): (7.56%)
- SAQ Question 1-6: Mildly limited, patients (%) (Baseline): (20.58%)
- SAQ Question 1-6: Moderately limited, patients (%) (Baseline): (18.43%)
- SAQ Question 1-6: Not limited, patients (%) (Baseline): (25.02%)
- SAQ Question 1-6: Other reasons, patients (%) (Baseline): (1.01%)
- SAQ Question 1-6: Severely limited, patients (%) (Baseline): (6.99%)
- SAQ Question 1-6: Slightly limited, patients (%) (Baseline): (27.98%)
- SAQ Question 1-7: Mildly limited, patients (%) (Baseline): (25.03%)
- SAQ Question 1-7: Moderately limited, patients (%) (Baseline): (19.44%)
- SAQ Question 1-7: Not limited, patients (%) (Baseline): (9.62%)
- SAQ Question 1-7: Other reasons, patients (%) (Baseline): (3.14%)
- SAQ Question 1-7: Severely limited, patients (%) (Baseline): (21.49%)
- SAQ Question 1-7: Slightly limited, patients (%) (Baseline): (21.28%)
- SAQ Question 1-8: Mildly limited, patients (%) (Baseline): (24.40%)
- SAQ Question 1-8: Moderately limited, patients (%) (Baseline): (22.43%)
- SAQ Question 1-8: Not limited, patients (%) (Baseline): (7.43%)
- SAQ Question 1-8: Other reasons, patients (%) (Baseline): (2.52%)
- SAQ Question 1-8: Severely limited, patients (%) (Baseline): (26.45%)
- SAQ Question 1-8: Slightly limited, patients (%) (Baseline): (16.77%)
- 8th question: Dissatisfied, patients (%) (Follow-up): (0.07%)
- 8th question: Highly satisfied, patients (%) (Follow-up): (28.16%)
- 8th question: Mostly dissatisfied, patients (%) (Follow-up): (0.64%)
- 8th question: Mostly satisfied, patients (%) (Follow-up): (60.27%)
- 8th question: Partly satisfied, patients (%) (Follow-up): (10.87%)
- 9th question: Few, patients (%) (Follow-up): (44.23%)
- 9th question: Mild, patients (%) (Follow-up): (27.32%)
- 9th question: Moderate, patients (%) (Follow-up): (3.87%)
- 9th question: Severe, patients (%) (Follow-up): (0.14%)
- 9th question: Uneffective, patients (%) (Follow-up): (24.44%)
- 10th question: Dissatisfied, patients (%) (Follow-up): (18.11%)
- 10th question: Highly satisfied, patients (%) (Follow-up): (9.51%)
- 10th question: Mostly dissatisfied, patients (%) (Follow-up): (19.38%)
- 10th question: Mostly satisfied, patients (%) (Follow-up): (32.21%)
- 10th question: Partly satisfied, patients (%) (Follow-up): (20.79%)
- 11th question: Continuously worried, patients (%) (Follow-up): (1.34%)
- 11th question: No worried, patients (%) (Follow-up): (8.74%)
- 11th question: Occasionally worried, patients (%) (Follow-up): (38.83%)
- 11th question: Often worried, patients (%) (Follow-up): (6.84%)
- 11th question: Seldom worried, patients (%) (Follow-up): (44.26%)
- SAQ 4th question, 1-2 times per week: % of patients (Follow-up): (13.17%)
- SAQ 4th question, 1-2 times per week: number of patients (Follow-up): 186
- SAQ 4th question, 1-3 times per week: % of patients (Follow-up): (2.83%)
- SAQ 4th question, 1-3 times per week: number of patients (Follow-up): 40
- SAQ 4th question, <1 time per week: % of patients (Follow-up): (16.08%)
- SAQ 4th question, <1 time per week: number of patients (Follow-up): 227
- SAQ 4th question, Not used: % of patients (Follow-up): (66.08%)
- SAQ 4th question, Not used: number of patients (Follow-up): 933
- SAQ 4th question, ≧3 times per week: % of patients (Follow-up): (1.84%)
- SAQ 4th question, ≧3 times per week: number of patients (Follow-up): 26
- SAQ 4th question, ≧4 times per day: % of patients (Follow-up): (0.00%)
- SAQ 4th question, ≧4 times per day: number of patients (Follow-up): 0
- SAQ 5th question, 1-2 times per week: % of patients (Follow-up): (32.86%)
- SAQ 5th question, 1-2 times per week: number of patients (Follow-up): 465
- SAQ 5th question, 1-3 times per day: % of patients (Follow-up): (3.18%)
- SAQ 5th question, 1-3 times per day: number of patients (Follow-up): 45
- SAQ 5th question, <1 time per week: % of patients (Follow-up): (31.24%)
- SAQ 5th question, <1 time per week: number of patients (Follow-up): 442
- SAQ 5th question, No onset: % of patients (Follow-up): (7.49%)
- SAQ 5th question, No onset: number of patients (Follow-up): 106
- SAQ 5th question, ≧3 times per week: % of patients (Follow-up): (25.09%)
- SAQ 5th question, ≧3 times per week: number of patients (Follow-up): 355
- SAQ 5th question, ≧4 times per day: % of patients (Follow-up): (0.14%)
- SAQ 5th question, ≧4 times per day: number of patients (Follow-up): 2
- SAQ 6th question, Dissatisfied: % of patients (Follow-up): (0.00%)
- SAQ 6th question, Dissatisfied: number of patients (Follow-up): 0
- SAQ 6th question, Highly satisfied: % of patients (Follow-up): (28.52%)
- SAQ 6th question, Highly satisfied: number of patients (Follow-up): 405
- SAQ 6th question, Mostly dissatisfied: % of patients (Follow-up): (0.63%)
- SAQ 6th question, Mostly dissatisfied: number of patients (Follow-up): 9
- SAQ 6th question, Mostly satisfied: % of patients (Follow-up): (62.25%)
- SAQ 6th question, Mostly satisfied: number of patients (Follow-up): 884
- SAQ 6th question, Partly satisfied: % of patients (Follow-up): (8.59%)
- SAQ 6th question, Partly satisfied: number of patients (Follow-up): 122
- SAQ 7th question, Dissatisfied: % of patients (Follow-up): (0.00%)
- SAQ 7th question, Dissatisfied: number of patients (Follow-up): 0
- SAQ 7th question, Highly satisfied: % of patients (Follow-up): (30.75%)
- SAQ 7th question, Highly satisfied: number of patients (Follow-up): 436
- SAQ 7th question, Mostly dissatisfied: % of patients (Follow-up): (0.28%)
- SAQ 7th question, Mostly dissatisfied: number of patients (Follow-up): 4
- SAQ 7th question, Mostly satisfied: % of patients (Follow-up): (62.13%)
- SAQ 7th question, Mostly satisfied: number of patients (Follow-up): 881
- SAQ 7th question, Partly satisfied: % of patients (Follow-up): (6.84%)
- SAQ 7th question, Partly satisfied: number of patients (Follow-up): 97
- SAQ Question 1-1 Mildly limited, number of patients (Follow-up): 6
- SAQ Question 1-1 Mildly limited, percent of patients (Follow-up): (0.43%)
- SAQ Question 1-1 Moderately limited, number of patients (Follow-up): 1
- SAQ Question 1-1 Moderately limited, percent of patients (Follow-up): (0.07%)
- SAQ Question 1-1 Not limited, number of patients (Follow-up): 1352
- SAQ Question 1-1 Not limited, percent of patients (Follow-up): (95.95%)
- SAQ Question 1-1 Other reasons, number of patients (Follow-up): 5
- SAQ Question 1-1 Other reasons, percent of patients (Follow-up): (0.35%)
- SAQ Question 1-1 Severely limited, number of patients (Follow-up): 1
- SAQ Question 1-1 Severely limited, percent of patients (Follow-up): (0.07%)
- SAQ Question 1-1 Slightly limited, number of patients (Follow-up): 44
- SAQ Question 1-1 Slightly limited, percent of patients (Follow-up): (3.12%)
- SAQ Question 1-2 Mildly limited, number of patients (Follow-up): 8
- SAQ Question 1-2 Mildly limited, percent of patients (Follow-up): (0.57%)
- SAQ Question 1-2 Moderately limited, number of patients (Follow-up): 0
- SAQ Question 1-2 Moderately limited, percent of patients (Follow-up): (0.00%)
- SAQ Question 1-2 Not limited, number of patients (Follow-up): 1336
- SAQ Question 1-2 Not limited, percent of patients (Follow-up): (94.82%)
- SAQ Question 1-2 Severely limited, number of patients (Follow-up): 2
- SAQ Question 1-2 Severely limited, percent of patients (Follow-up): (0.14%)
- SAQ Question 1-2 Slightly limited, number of patients (Follow-up): 56
- SAQ Question 1-2 Slightly limited, percent of patients (Follow-up): (3.97%)
- SAQ Question 1-6: Mildly limited, patients (%) (Follow-up): (11.32%)
- SAQ Question 1-6: Moderately limited, patients (%) (Follow-up): (9.19%)
- SAQ Question 1-6: Not limited, patients (%) (Follow-up): (41.95%)
- SAQ Question 1-6: Other reasons, patients (%) (Follow-up): (0.85%)
- SAQ Question 1-6: Severely limited, patients (%) (Follow-up): (2.28%)
- SAQ Question 1-6: Slightly limited, patients (%) (Follow-up): (34.40%)
- SAQ Question 1-7: Mildly limited, patients (%) (Follow-up): (21.92%)
- SAQ Question 1-7: Moderately limited, patients (%) (Follow-up): (6.63%)
- SAQ Question 1-7: Not limited, patients (%) (Follow-up): (22.35%)
- SAQ Question 1-7: Other reasons, patients (%) (Follow-up): (2.60%)
- SAQ Question 1-7: Severely limited, patients (%) (Follow-up): (11.68%)
- SAQ Question 1-7: Slightly limited, patients (%) (Follow-up): (34.82%)
- SAQ Question 1-8: Mildly limited, patients (%) (Follow-up): (24.93%)
- SAQ Question 1-8: Moderately limited, patients (%) (Follow-up): (11.85%)
- SAQ Question 1-8: Not limited, patients (%) (Follow-up): (15.12%)
- SAQ Question 1-8: Other reasons, patients (%) (Follow-up): (3.27%)
- SAQ Question 1-8: Severely limited, patients (%) (Follow-up): (14.75%)
- SAQ Question 1-8: Slightly limited, patients (%) (Follow-up): (30.09%)
- SAQ Question 1-2 Not limited, number of patients [1]: 7
- SAQ Question 1-2 Not limited, percent of patients [1]: (0.50%)
